# Results taken from patent publication US20250197460A1, “USE OF LACTOBACILLUS PARACASEI GM-080 AND PEPTIDES THEREOF FOR ANTIMICROBIA” (GenMont Biotech Incorporation, priority 2023, published 2025).
# What was measured:
# [1] = tested on: Streptococcus pyogenes NZ131; test: Antimicrobial peptide co-culture, viable bacteria in a dish coating manner; type: cell-based; settings: 1-200 mg/mL
# Protocol: (§1) The powder was diluted with DMSO to different concentrations. Subsequently, after being co-cultured with pathogenic streptococcus for different time periods, it was confirmed whether the antimicrobial peptides were the antimicrobial peptide of GM-080 capable of inhibiting Streptococcus pyogenes NZ131 by OD6oonm or in a dish coating manner simultaneously.
# [2] = tested on: Streptococcus pyogenes NZ131; test: Antimicrobial peptide co-culture with Streptococcus pyogenes (OD); type: cell-based
# Protocol: as §1
Sequence,"inhibition of growth of Streptococcus pyogenes in a dish coating manner (viable bacteria) ([1]; co-cultured for 2 or 5 hours, FIG. 9A)","inhibition of Streptococcus pyogenes in a co-culture manner ([2]; 10-200 mg/mL, from 2-3 hours of co-culture, FIG. 8A)",inhibition of growth of Streptococcus pyogenes in a dish coating manner ([1]; FIG. 9B),"inhibition of growth of Streptococcus pyogenes in a co-culture manner ([2]; 1-200 mg/mL, FIG. 8B)"
"MELLNEKELAHVIGGKRKCPKTPFDNTPGAWFAHLILGC (GM-080; listed as Lactobacillus paracasei) [AMP-01026, antimicrobial peptide of Lactobacillus paracasei GM-080, synthesized]",significantly inhibit the growth,good inhibition effect,–,–
"MKQFDEQKMVNMSDEELLEFIGGDSIRDVSPTFNKIRRWFDGLFK (GM-080; listed as Lactobacillus paracasei) [AMP-01240, second predicted antimicrobial peptide segment of GM-080, synthesized]",–,–,not capable of inhibiting the growth,not capable of inhibiting the growth
